The test system of one experiment is MV-4-11 cells. The experiment is described as follows: Cell growth inhibition assay (CellTiter-Glo), MV-4-11. Type of experiment: cell-based. The following applies: Homo sapiens, MV4-11. The method in brief:
(§1)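 Leukemia lines grown in their own media were exposed for 4 days at 37° C. to 3-fold serial dilutions from 10 μM (0.1% DMSO). Viability by CellTiter-Glo ATP luminescence, corrected for background and day-0 plate; IC50 and TGI from four-parameter fit against vehicle (100%) and medium (−100%).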
In general terms: In ATP-based viability assays light output follows the ATP content of the culture.

The next experiment deals with K-562 cells. The experiment in a line: Cell growth inhibition assay (CellTiter-Glo), K-562. Type of experiment: cell-based, human. The settings on record: for GI50: Homo sapiens, K562. The method in brief: as §1
The next experiment relates to THP-1 cells. The experiment is described as follows: Cell growth inhibition assay (CellTiter-Glo), THP-1. Type of experiment: cell-based. The following applies: Homo sapiens. The method in brief: as §1

One may read the GI50 as the concentration giving 50% growth inhibition.

A value given as a limit tells only on which side of the number the result lay.

`Cc1cc(N2C(=O)c3n[nH]cc3C2c2ccc(Cl)cc2)cn(C)c1=O` (stereo not shown) [Example 26, 4-(4-chlorophenyl)-5-(1,5-dimethyl-6-oxo-1,6-dihydropyridin-3-yl)-4,5-dihydropyrrolo[3,4-c]pyrazol-6(2H)-one]: the GI50 in the experiment on MV-4-11 cells was 204 nM; with K-562 cells, 1500 nM; with THP-1 cells it was 297 nM.
With `CCc1nn(C2CC2)c2c1[C@H](c1ccc(Cl)cc1)N(c1cc(C)c3nnc(C)n3c1)C2=O` [Example 106, (S)-4-(4-chlorophenyl)-1-cyclopropyl-5-(3,8-dimethyl-[1,2,4]triazolo[4,3-a]pyridin-6-yl)-3-ethyl-4,5-dihydropyrrolo-[3,4-c]pyrazol-6(1H)-one], the results for the GI50 in the experiment on MV-4-11 cells, in the experiment with K-562 cells and in the experiment on THP-1 cells were 649 nM, 4060 nM and 2110 nM, respectively. In the experiment with K-562 cells, this molecule showed an IC (TGI) of over 10000 nM.
On to `Cc1nn(C2CC2)c2c1C(c1ccc(Cl)cc1)N(c1cc(N(C)C(=O)OC(C)(C)C)c3nnc(C)n3n1)C2=O` (stereo not shown) [Example 112, tert-butyl (6-(4-(4-chlorophenyl)-1-cyclopropyl-3-methyl-6-oxopyrrolo[3,4-c]pyrazol-5(1H,4H,6H)-yl)-3-methyl-[1,2,4]triazolo[4,3-b]pyridazin-8-yl)(methyl)carbamate], for which the GI50 with MV-4-11 cells is 758 nM; in the experiment on K-562 cells, 2810 nM; in the experiment with THP-1 cells, 1280 nM.
`CC(=O)Nc1cc(N2C(=O)c3c(c(C)nn3C3CC3)C2c2ccc(Cl)cc2)nn2c(C)nnc12` (stereo not shown) [Example 126, N-(6-(4-(4-chlorophenyl)-1-cyclopropyl-3-methyl-6-oxopyrrolo[3,4-c]pyrazol-5-(1H,4H,6H)-yl)-3-methyl-[1,2,4]triazolo[4,3-b]pyridazin-8-yl)acetamide]: the GI50 in the experiment with MV-4-11 cells came to 404 nM; in the experiment with K-562 cells it was 4150 nM; in the experiment on THP-1 cells, 576 nM.
With `CCc1nn(C2CC2)c2c1C(c1ccc(Cl)cc1)N(c1cc(C)c3nnc(C)n3c1)C2=O` (stereo not shown) [Example 70, 4-(4-chlorophenyl)-1-cyclopropyl-5-(3,8-dimethyl-[1,2,4]triazolo[4,3-a]pyridin-6-yl)-3-ethyl-4,5-dihydropyrrolo-[3,4-c]pyrazol-6(1H)-one], the GI50 in the experiment with MV-4-11 cells is 9.02 nM; in the experiment on K-562 cells, 60.8 nM; in the experiment with THP-1 cells, 12.2 nM.
In the same order, the values of `Cc1nn(C2CC2)c2c1[C@H](c1ccc(Cl)cc1)N(c1cc(C)c3nnc(C)n3n1)C2=O` [Example 123, (S)-4-(4-chlorophenyl)-1-cyclopropyl-5-(3,8-dimethyl-[1,2,4]triazolo[4,3-b]pyridazin-6-yl)-3-methyl-4,5-dihydropyrrolo-[3,4-c]pyrazol-6(1H)-one] are 2870 nM, 9400 nM and 5880 nM.
On to `Cc1nn(C)c2c1C(c1ccc(Cl)cc1)N(c1cc(C)c(=O)n(C)c1)C2=O` (stereo not shown) [Example 57, 4-(4-chlorophenyl)-5-(1,5-dimethyl-6-oxo-1,6-dihydropyridin-3-yl)-1,3-dimethyl-4,5-dihydropyrrolo-[3,4-c]pyrazol-6(1H)-one], for which the GI50 with MV-4-11 cells amounted to 69.5 nM; in the experiment with K-562 cells, 480 nM; with THP-1 cells, 117 nM.
In the same order, the values of `Cc1nn(C(C)C)c2c1[C@@H](c1ccc(Cl)cc1F)N(c1cc(C)c3nnc(C)n3c1)C2=O` [Example 189, (S)-4-(4-chloro-2-fluorophenyl)-5-(3,8-dimethyl-[1,2,4]triazolo[4,3-a]pyridin-6-yl)-1-isopropyl-3-methyl-4,5-dihydropyrrolo[3,4-c]pyrazol-6(1H)-one] are 14.1 nM, 88.5 nM and 11.3 nM.
In the case of `Cc1cc(N2C(=O)c3nn(C4COC4)c(C)c3C2c2ccc(Cl)cc2)cn(C)c1=O` (stereo not shown) [Example 134, 4-(4-chlorophenyl)-5-(1,5-dimethyl-6-oxo-1,6-dihydropyridin-3-yl)-3-methyl-2-(oxetan-3-yl)-4,5-dihydropyrrolo[3,4-c]pyrazol-6(2H)-one], the GI50 with MV-4-11 cells came to 117 nM; with K-562 cells it was 574 nM; in the experiment with THP-1 cells, 161 nM.
As to `COc1ccccc1-n1nc(C)c2c1C(=O)N(c1cc(C)c3nnc(C)n3c1)C2c1ccc(Cl)cc1F` (stereo not shown) [Example 187, 4-(4-chloro-2-fluorophenyl)-5-(3,8-dimethyl-[1,2,4]triazolo[4,3-a]pyridin-6-yl)-1-(2-methoxyphenyl)-3-methyl-4,5-dihydropyrrolo-[3,4-c]pyrazol-6(1H)-one], the results for the GI50 in the experiment on MV-4-11 cells, in the experiment on K-562 cells and with THP-1 cells were 144 nM, 655 nM and 168 nM, respectively.
Turning to `COc1ncc(-n2nc3c(c2C(C)C)[C@@H](c2ccc(Cl)cc2)N(c2cc(C)c4onc(C)c4c2)C3=O)c(OC)n1` [Example 62, (R)-4-(4-chlorophenyl)-2-(2,4-dimethoxypyrimidin-5-yl)-5-(3,7-dimethylbenzo[d]-isoxazol-5-yl)-3-isopropyl-4,5-dihydropyrrolo[3,4-c]pyrazol-6(2H)-one], the GI50 with MV-4-11 cells was determined as 58.4 nM; in the experiment with K-562 cells it was 316 nM; with THP-1 cells, 97.7 nM. Further, the IC (TGI) in the experiment with K-562 cells was over 10000 nM.
`COCc1nn(C2CC2)c2c1C(c1ccc(Cl)cc1)N(c1cc(C)c3nnc(C)n3c1)C2=O` (stereo not shown) [Example 130, 4-(4-chlorophenyl)-1-cyclopropyl-5-(3,8-dimethyl-[1,2,4]triazolo[4,3-a]pyridin-6-yl)-3-(methoxymethyl)-4,5-dihydropyrrolo[3,4-c]pyrazol-6(1H)-one]: the GI50 turned out to be 16.1 nM in the experiment with MV-4-11 cells, 195 nM in the experiment on K-562 cells and 35.7 nM in the experiment with THP-1 cells. In the experiment on K-562 cells, the IC (TGI) is over 10000 nM.
For `CCc1c2c(nn1C1CC1)C(=O)N(c1cc(C)c(=O)n(C)c1)C2c1ccc(Cl)cc1` (stereo not shown) [Example 68, 4-(4-chlorophenyl)-2-cyclopropyl-5-(1,5-dimethyl-6-oxo-1,6-dihydropyridin-3-yl)-3-ethyl-4,5-dihydropyrrolo-[3,4-c]pyrazol-6(2H)-one], the figures for the GI50 with MV-4-11 cells, in the experiment with K-562 cells and in the experiment with THP-1 cells were 30.1 nM, 157 nM and 47.7 nM, respectively.
In the case of `CCc1nn(CCO)c2c1C(c1ccc(Cl)cc1)N(c1cc(C)c3onc(C)c3c1)C2=O` (stereo not shown) [Example 79, 4-(4-chlorophenyl)-5-(3,7-dimethylbenzo[d]isoxazol-5-yl)-3-ethyl-1-(2-hydroxyethyl)-4,5-dihydropyrrolo-[3,4-c]pyrazol-6(1H)-one], the concentration for 50% growth inhibition (GI50) in the experiment on MV-4-11 cells was determined as 348 nM; in the experiment with K-562 cells it was 920 nM; in the experiment with THP-1 cells, 255 nM.
For `Cn1cc(N2C(=O)c3c(cnn3C3CC3)C2c2ccc(Cl)cc2)cc(Cl)c1=O` (stereo not shown) [Example 35, 5-(5-chloro-1-methyl-6-oxo-1,6-dihydropyridin-3-yl)-4-(4-chlorophenyl)-1-cyclopropyl-4,5-dihydropyrrolo[3,4-c]pyrazol-6(1H)-one], the GI50 amounted to 105 nM with MV-4-11 cells, 905 nM in the experiment on K-562 cells and 239 nM with THP-1 cells.
In the case of `COc1ncccc1-n1nc2c(c1C)C(c1ccc(Cl)cc1F)N(c1cc(C)c3nnc(C)n3c1)C2=O` (stereo not shown) [Example 194, 4-(4-chloro-2-fluorophenyl)-5-(3,8-dimethyl-[1,2,4]triazolo[4,3-a]pyridin-6-yl)-2-(2-methoxypyridin-3-yl)-3-methyl-4,5-dihydropyrrolo-[3,4-c]pyrazol-6(2H)-one], the GI50 in the experiment on MV-4-11 cells is 48.6 nM; with K-562 cells, 245 nM; in the experiment on THP-1 cells, 73.2 nM.
Regarding `COc1ncccc1-n1nc(C)c2c1C(=O)N(c1cc(C)c(=O)n(C)c1)[C@@H]2c1ccc(Cl)cc1` [Example 128, (R)-4-(4-chlorophenyl)-5-(1,5-dimethyl-6-oxo-1,6-dihydropyridin-3-yl)-1-(2-methoxypyridin-3-yl)-3-methyl-4,5-dihydropyrrolo-[3,4-c]pyrazol-6(1H)-one], the GI50 turned out to be 34.5 nM in the experiment with MV-4-11 cells, 183 nM in the experiment with K-562 cells and 64.6 nM in the experiment on THP-1 cells. The molecule further registered an IC (TGI) in the experiment on K-562 cells of over 10000 nM.
With `Cc1[nH]nc2c1C(c1ccc(Cl)cc1)N(c1cc(C)c(=O)n(C)c1)C2=O` (stereo not shown) [Example 27, 4-(4-chlorophenyl)-5-(1,5-dimethyl-6-oxo-1,6-dihydropyridin-3-yl)-3-methyl-4,5-dihydropyrrolo[3,4-c]pyrazol-6(2H)-one], the values for the GI50 with MV-4-11 cells, in the experiment with K-562 cells and with THP-1 cells were 55.9 nM, 463 nM and 120 nM, respectively.
As for `Cc1cc(N2C(=O)c3nn(C4CN(C)C4)c(C)c3C2c2ccc(Cl)cc2)cn2c(C)nnc12` (stereo not shown) [Example 158, 4-(4-chlorophenyl)-5-(3,8-dimethyl-[1,2,4]triazolo[4,3-a]pyridin-6-yl)-3-methyl-2-(1-methylazetidin-3-yl)-4,5-dihydropyrrolo-[3,4-c]pyrazol-6(2H)-one], the GI50 worked out at 26.6 nM in the experiment on MV-4-11 cells, 484 nM in the experiment with K-562 cells and 142 nM in the experiment on THP-1 cells.
As to `Cc1c2c(nn1C)C(=O)N(c1cc(Cl)c(=O)n(C)c1)[C@@H]2c1ccc(Cl)cc1` [Example 7, (R)-5-(5-chloro-1-methyl-6-oxo-1,6-dihydropyridin-3-yl)-4-(4-chlorophenyl)-2,3-dimethyl-4,5-dihydropyrrolo-[3,4-c]pyrazol-6(2H)-one], the GI50 was 71.1 nM with MV-4-11 cells, 632 nM in the experiment with K-562 cells and 103 nM in the experiment on THP-1 cells.
Turning to `Cc1cc(N2C(=O)c3nn(C4CC4)c(C)c3C2c2ccc(Cl)cc2)cn2c(C)nnc12` (stereo not shown) [Example 93, 4-(4-chlorophenyl)-2-cyclopropyl-5-(3,8-dimethyl-[1,2,4]triazolo[4,3-a]pyridin-6-yl)-3-methyl-4,5-dihydropyrrolo[3,4-c]pyrazol-6(2H)-one], the values for the GI50 in the experiment on MV-4-11 cells, with K-562 cells and in the experiment with THP-1 cells were 13.5 nM, 80 nM and 26.4 nM, respectively.
In the case of `Cc1nn(C[C@H](O)C(F)(F)F)c2c1[C@@H](c1ccc(Cl)cc1)N(c1cc(C)c3nnc(C)n3c1)C2=O` [Example 167, (R)-4-(4-chlorophenyl)-5-(3,8-dimethyl-[1,2,4]triazolo[4,3-a]pyridin-6-yl)-3-methyl-1-((S)-3,3,3-trifluoro-2-hydroxypropyl)-4,5-dihydropyrrolo-[3,4-c]pyrazol-6(1H)-one], the GI50 was determined as 27.6 nM in the experiment with MV-4-11 cells, 294 nM with K-562 cells and 59.6 nM in the experiment on THP-1 cells.
